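A five-concentration, 48-hour dose response in 96-well plates underlies each endpoint, interpolated linearly between surrounding concentrations. At the GI50, growth is halved.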 Activity calls are given as the source filed them. Cut-off read from the data, not from the text of the source: active = GI50 up to about 1.1 µM and inactive = higher.
Legend:
Assay in all cases: NCI anticancer screen, dose series, 48 h
[1] = system: SF-295
[2] = system: M14
[3] = system: HOP-62
[4] = system: NCI/ADR-RES
[5] = system: NCI-H226
[6] = system: DU-145
[7] = system: RPMI-8226
[8] = system: OVCAR-3
[9] = system: SW-620
[10] = system: KM12
[11] = system: MOLT-4
[12] = system: UACC-257
[13] = system: ACHN
[14] = system: A549
[15] = system: SN12C
[16] = system: MDA-N
[17] = system: MDA-MB-231
[18] = system: RXF 393
[19] = system: T47D
[20] = system: HCC 2998
[21] = system: Malme-3M
[22] = system: NCI-H23
[23] = system: SK-OV-3
[24] = system: MDA-MB-435
[25] = system: OVCAR-4
[26] = system: 786-0
[27] = system: SK-MEL-28
[28] = system: CAKI-1
[29] = system: HCT-116
[30] = system: OVCAR-8
[31] = system: Hs-578T
[32] = system: TK-10
[33] = system: SNB-19
[34] = system: IGROV-1
[35] = system: COLO 205
[36] = system: K562
[37] = system: UO-31
[38] = system: MCF7
[39] = system: CCRF-CEM
[40] = system: BT-549
[41] = system: NCI-H460
[42] = system: SNB-75
[43] = system: UACC-62
[44] = system: HT-29
[45] = system: SK-MEL-2
[46] = system: SF-268
[47] = system: EKVX
[48] = system: SK-MEL-5
[49] = system: OVCAR-5
[50] = system: HCT-15
[51] = system: U-251
[52] = system: PC-3
[53] = system: NCI-H522
[54] = system: HOP-92
[55] = system: SF-539
[56] = system: A498

COc1ccc(/C=N/NC(=O)c2cnc3[nH]c(=O)n(C)c(=O)c3c2)cc1
GI50 [1]: 46.3 µM (inactive)
GI50 [2]: > 100 µM (inactive)
GI50 [3]: 44.3 µM (inactive)
GI50 [4]: 97.3 µM (inactive)
GI50 [5]: 64.1 µM (inactive)
GI50 [6]: > 100 µM (inactive)
GI50 [7]: > 100 µM (inactive)
GI50 [8]: > 100 µM (inactive)
GI50 [9]: > 100 µM (inactive)
GI50 [10]: > 100 µM (inactive)
GI50 [11]: > 100 µM (inactive)
GI50 [12]: > 100 µM (inactive)
GI50 [13]: 44 µM (inactive)
GI50 [14]: > 100 µM (inactive)
GI50 [15]: 88.3 µM (inactive)
GI50 [16]: > 100 µM (inactive)
GI50 [17]: 27 µM (inactive)
GI50 [18]: 38.3 µM (inactive)
GI50 [19]: > 100 µM (inactive)
GI50 [20]: > 100 µM (inactive)
GI50 [21]: > 100 µM (inactive)
GI50 [22]: > 100 µM (inactive)
GI50 [23]: 59.2 µM (inactive)
GI50 [24]: > 100 µM (inactive)
GI50 [25]: > 100 µM (inactive)
GI50 [26]: 34.4 µM (inactive)
GI50 [27]: > 100 µM (inactive)
GI50 [28]: 94.8 µM (inactive)
GI50 [29]: 57.5 µM (inactive)
GI50 [30]: 40.6 µM (inactive)
GI50 [31]: 39.9 µM (inactive)
GI50 [32]: 46.5 µM (inactive)
GI50 [33]: 34.1 µM (inactive)
GI50 [34]: 34.9 µM (inactive)
GI50 [35]: > 100 µM (inactive)
GI50 [36]: > 100 µM (inactive)
GI50 [37]: > 100 µM (inactive)
GI50 [38]: > 100 µM (inactive)
GI50 [39]: > 100 µM (inactive)
GI50 [40]: > 100 µM (inactive)
GI50 [41]: > 100 µM (inactive)
GI50 [42]: 13.1 µM (inactive)
GI50 [43]: 80.2 µM (inactive)
GI50 [44]: > 100 µM (inactive)
GI50 [45]: 44.3 µM (inactive)
GI50 [46]: 45.2 µM (inactive)
GI50 [47]: > 100 µM (inactive)
GI50 [48]: > 100 µM (inactive)
GI50 [49]: > 100 µM (inactive)
GI50 [50]: > 100 µM
GI50 [51]: 36.7 µM (inactive)
GI50 [52]: > 100 µM (inactive)

COc1ccc(OC)c2cc(Cc3ccc(N(C)C)cc3)c(=O)c(Cc3ccc(N(C)C)cc3)cc12
GI50 [1]: > 100 µM (inactive)
GI50 [2]: > 100 µM (inactive)
GI50 [3]: 58.6 µM (inactive)
GI50 [53]: 20.7 µM (inactive)
GI50 [4]: 30.2 µM (inactive)
GI50 [5]: 47.3 µM (inactive)
GI50 [6]: > 100 µM (inactive)
GI50 [7]: 22.4 µM (inactive)
GI50 [8]: > 100 µM (inactive)
GI50 [9]: > 100 µM (inactive)
GI50 [10]: > 100 µM (inactive)
GI50 [11]: > 100 µM (inactive)
GI50 [12]: > 100 µM (inactive)
GI50 [13]: > 100 µM (inactive)
GI50 [14]: 57 µM (inactive)
GI50 [54]: > 100 µM (inactive)
GI50 [15]: > 100 µM (inactive)
GI50 [16]: > 100 µM (inactive)
GI50 [17]: 74.5 µM (inactive)
GI50 [18]: > 100 µM (inactive)
GI50 [19]: 76.9 µM (inactive)
GI50 [20]: > 100 µM (inactive)
GI50 [21]: > 100 µM (inactive)
GI50 [22]: > 100 µM (inactive)
GI50 [23]: > 100 µM (inactive)
GI50 [24]: > 100 µM (inactive)
GI50 [25]: > 100 µM (inactive)
GI50 [26]: 90.8 µM (inactive)
GI50 [27]: > 100 µM (inactive)
GI50 [28]: 61 µM (inactive)
GI50 [29]: > 100 µM (inactive)
GI50 [30]: 32.9 µM (inactive)
GI50 [31]: 25.5 µM (inactive)
GI50 [33]: 75.5 µM (inactive)
GI50 [34]: 45.7 µM (inactive)
GI50 [35]: > 100 µM (inactive)
GI50 [36]: 34.4 µM (inactive)
GI50 [55]: 86.1 µM (inactive)
GI50 [37]: > 100 µM (inactive)
GI50 [38]: > 100 µM (inactive)
GI50 [39]: > 100 µM (inactive)
GI50 [40]: > 100 µM (inactive)
GI50 [41]: 55.6 µM (inactive)
GI50 [42]: 40.4 µM (inactive)
GI50 [43]: 59.4 µM (inactive)
GI50 [56]: 26.4 µM (inactive)
GI50 [44]: > 100 µM (inactive)
GI50 [46]: 46.7 µM (inactive)
GI50 [47]: > 100 µM (inactive)
GI50 [48]: 63.7 µM (inactive)
GI50 [49]: > 100 µM (inactive)
GI50 [50]: > 100 µM
GI50 [51]: 53.2 µM (inactive)
GI50 [52]: 62.1 µM (inactive)

From ChEMBL document CHEMBL1201862, “PubChem BioAssay data set” (2004)
